Laboratory results taken from patent US8329617B2, “Compositions and methods for synergistic manipulation of plant and insect defenses” (Plant Bioscience Limited, priority 2007, dated 2012).

Tested on: Myzus persicae, US1L
Assay: Bioassay: M. persicae protein on four pepper plants treated with cis-jasmone and PBO (1, 5 or 10 adults per plant)
Assay type: in vivo
Details: for Av. Total Insect Protein μg: Bioassay, M. persicae (US1L), average of weeks 1 to 3; for μg (Av) Total Protein (M. persicae): four pepper plants, 7 days
Protocol: In all bioassay experiments the control plants were sprayed with deionised water. Initially seven treatments were used (Table 1) to test all chemical variables. All treatments were applied hydraulically with a spray simulator after which the plants were separated according to treatment (with cis-jasmone controls being separated) and left for 2 hours prior to insect application.
Analysis of protein in each treatment was conducted using Bradford Reagent: the data were analysed using the computer programme ‘GraFit’ (Erithacus software, Berkeley). To calculate the calibration curve a single logarithmic curve was used with regression analysis taking the values of the treatment wells (averages of the three readings taken: technical replicates). […]
To investigate developmental/fecundity effects of cis-jasmone+/−PBO E on Myzus persicae when applied to sweet peppers, one adult was added to the plants. Aphids were brushed from all plants and each leaf checked individually to ensure none remained. The aphid mass for each treatment was assessed for total protein (total from all four plants in the treatment) using Bradford reagent. The amount of aphid protein present on the plants 7 days after treatment was measured.
(§1) Myzus persicae was applied to sweet peppers at the rate of five adults were added per plant. Aphids were brushed from all plants and each leaf checked individually to ensure none remained. The aphid mass for each treatment was assessed for total protein (total from all four plants in the treatment) using Bradford reagent. The amount of aphid protein present on the plants 7 days after treatment was measured (for further information see Example 3).
as §1, with “persicae were” for “persicae was”, “of ten” for “of five”, “adults” for “adults were added”

In the case of `CCCCOCCOCCOCc1cc2c(cc1CCC)OCO2` [PBO, 2-(2-butoxyethoxy)ethyl 6-propylpiperonyl ether], the “Av. Total Insect Protein μg” value (1 adult/plant) is reported as 10.710 µg, the “Av. Total Insect Protein μg” value (5 adults/plant) is reported as 21.500 µg and the “Av. Total Insect Protein μg” value (10 adults/plant) is reported as 35.200 µg. For the same molecule, the “effect of addition of PBO to cis-jasmone on reduction of insect protein (in words)” value (M. persicae on pepper, five adults per plant) was “potentiates the effect of cis-jasmone”, the “reduction in total aphid protein (in words)” value (M. persicae on pepper, small scale assays, 10, 5 or 1 adult aphid per plant) was “no significant reduction” and the “μg (Av) Total Protein (M. persicae)” value (five adult apterous aphids per plant, week 1) was 23.60 µg. The “μg (Av) Total Protein (M. persicae)” value (five adult apterous aphids per plant, week 2) was 17.29 µg, the “μg (Av) Total Protein (M. persicae)” value (five adult apterous aphids per plant, week 3) was 23.60 µg and the “μg (Av) Total Protein (M. persicae)” value (one adult apterous aphid per plant, week 1) was 13.64 µg. For the same molecule, the “μg (Av) Total Protein (M. persicae)” value (one adult apterous aphid per plant, week 2) was 8.50 µg, the “μg (Av) Total Protein (M. persicae)” value (one adult apterous aphid per plant, week 3) was 10.01 µg and the “μg (Av) Total Protein (M. persicae)” value (ten adult apterous aphids per plant, week 1) was 38.91 µg. For the same molecule, the “μg (Av) Total Protein (M. persicae)” value (ten adult apterous aphids per plant, week 2) was 33.2 µg and the “μg (Av) Total Protein (M. persicae)” value (ten adult apterous aphids per plant, week 3) was 33.5 µg.
